Consider 2 compounds from patent US20080004320A1, “Remedy for Glomerular Disease” (Kowa Co., Ltd., priority 2004, published 2008).

The test system of this test is ⅚ nephrectomized rats. Briefly: Effect on ⅚ nephrectomized rat (progressive renal failure model). The test is classed as in vivo. The conditions noted are these: for death due to renal failure, compared with control group (FIG. 1): until week 15 after initiation of drug administration; for glomerulosclerosis score compared with control group (in words) / Glomerulosclerosis (score): week 15 after initiation of drug administration; for Glomerulosclerosis (score): average score of 50 glomeruli per renal tissue piece, male SD rats. The text has this:
Fifty-one male SD rats (seven weeks old, purchased from Japan SLC, Inc.) were anesthetized with pentobarbital, and the left kidney of each rat was exposed. Under a stereoscopic microscope, two of the left renal artery branches (generally, one renal artery is separated into three branches) were ligated and one central branch was left intact. When a renal artery branch is ligated, a portion controlled by the branch falls into ischemia, and such an ischemic renal portion can be visually detected. One week later, the right kidney was removed. That is to say, ⅚ of the kidneys was removed. Four weeks after surgery, blood was collected from each rat under unanesthetized conditions, and plasma creatinine level (Pcr) was measured. Pcr is a blood parameter indicative of renal function, and an increase in Pcr indicates impairment of renal function. After Pcr measurement, rats with considerably impaired renal function and rats with no impairment of renal function were eliminated, to thereby select 36 rats employed for the test.
Subsequently, on the basis of the thus-obtained Pcr data, these rats were divided into four groups in such a manner that the value of Pcr was averaged out among each group: control group (i.e., no drug administration group) (N=9); pyridoxamine dihydrochloride administration group (administered in the form of aqueous solution (1.5 g/L)) (N=9); candesartan cilexetil administration group ((1 mg/kg) administered orally once a day) (N=9); and combined administration group (pyridoxamine dihydrochloride administered in the form of aqueous solution (1.5 g/L), and candesartan cilexetil (1 mg/kg) administered orally once a day) (N=9). In addition to these four groups, one normal rat group non-surgical group, was provided.
Pyridoxamine dihydrochloride was dissolved in purified water, and the aqueous solution was available to the rats ad libitum. The daily dose of pyridoxamine dihydrochloride was about 100 mg/kg Candesartan cilexetil was suspended in 0.5% methyl cellulose sodium solution upon use, and the suspension was repeatedly orally administered.
Drug administration was initiated at week five after surgery (Pcr was about 1.5 mg/dL at the start of drug administration; i.e., renal function had already been impaired).
After initiation of drug administration, the number of surviving rats was recorded every day. Per was measured at week two, week four, week seven, week 11, and week 15 after initiation of drug administration. Urinary total protein excretion was measured at week four, week seven, week 11 and week 15 after initiation of drug administration (each measurement was performed after 18-hour urine accumulation). In addition, at week 15 after initiation of drug administration, systolic blood pressure was measured under unanesthetized conditions by means of a noninvasive blood pressure measuring apparatus.
At week 15 after initiation of drug administration, the renal tissue of each rat was observed, and the degree of glomerulosclerosis was evaluated on the basis of the below-described score. […] As used herein, the term “score” refers to the degree of glomerulosclerosis; i.e., the degree of hyperplasia of mesangial matrix in glomeruli. […] Score 0 was assigned to a glomerulus similar to that of rats in the normal rat group; score 1 was assigned to a glomerulus in which the area of mesangial matrix accounts for less than 25%; score 2 was assigned to a glomerulus in which the area of mesangial matrix accounts for 25% or more and less than 50%; score 3 was assigned to a glomerulus in which the area of mesangial matrix accounts for 50% or more and less than […]; and score 4 was assigned to a glomerulus in which the area of mesangial matrix accounts for 75% or more. The average of the thus-obtained scores of the glomeruli was employed for evaluation of glomerulosclerosis.

Structures can show the parent of a compound that is named as a salt.

Take `CCOc1nc2cccc(C(=O)OC(C)OC(=O)OC3CCCCC3)c2n1Cc1ccc(-c2ccccc2-c2nnn[nH]2)cc1` (stereo not drawn) [Candesartan cilexetil, 1-(cyclohexyloxycarbonyloxy)ethyl 2-ethoxy-1-[2′-(1H-tetrazol-5-yl)biphenyl-4-ylmethyl]-1H-benzimidazole-7-carboxylate]: the “death due to renal failure, compared with control group (FIG. 1)” value was “tendency for suppression of death due to renal failure was observed”; the “glomerulosclerosis score compared with control group (in words)” value is “reduction in score was observed”; the “Glomerulosclerosis (score)” value is on record as 1.52 ± 0.45 score.

Regarding `Cc1ncc(CO)c(CN)c1O` [Pyridoxamine dihydrochloride, 4-(aminomethyl)-5-hydroxy-6-methyl-3-pyridinemethanol], the “death due to renal failure, compared with control group (FIG. 1)” value was “tendency for suppression of death due to renal failure was observed”; the “glomerulosclerosis score compared with control group (in words)” value is listed as “no reduction in score was observed”; the “Glomerulosclerosis (score)” value is 1.93 ± 0.35 score.
